{
  "source": "patent US20240075017A1",
  "about": "(priority 2021, published 2024)",
  "key": {"SARS-CoV-2-GFP": {"system": "SARS-CoV-2-GFP", "format": "cell-based"}, "[1]": {"system": "wild-type (wt) SARS-CoV-2", "test": "Plaque assay of released viral progeny from pre-treated Vero E6 cells", "format": "cell-based", "details": "6 h pre-treatment, range of concentrations, MOI 0.01, 48 hours post-infection"}, "IL6": {"system": "IL6", "format": "cell-based, human", "details": "NHBEs, 0.75 μM, mock-, SARS-CoV or SARS-CoV-2 infected, 24 h post-infection"}, "NHBE cells": {"system": "NHBE cells", "format": "cell-based, human"}, "[2]": {"system": "SARS-CoV-2 (strain MUC-IMB-1)", "format": "cell-based"}, "[3]": {"system": "SARS-CoV-2 (strain MUC-IMB-1)", "test": "Viral nucleoprotein (NP) western blot in A549-ACE2 cells", "format": "cell-based"}, "[4]": {"system": "SARS-CoV (strain Frankfurt 1)", "format": "cell-based", "details": "A549-ACE2 cells, 6 h pre-treatment, 24 hours infection"}, "SARS-CoV": {"system": "SARS-CoV", "details": "described previously (ref. 70); cited from earlier work"}, "IP-10": {"system": "IP-10", "test": "Secreted IP10 by ELISA in NHBEs", "format": "cell-based, human"}, "[5]": {"system": "SARS-CoV-2 (strain MUC-IMB-1)", "test": "NP immunofluorescence in primary normal human bronchial cells (NHBE) ex vivo", "format": "cell-based", "details": "6 h pre-treatment, MOI 3, 24 hours post-infection"}},
  "note": "Entries after “also recorded” stand apart in the source; their conditions may differ.",
  "data": [
    {"molecule": "NC(CCSCCCCC(=O)O)C(=O)O", "note": "(racemic) [CBHcy, S-(4-Carboxybutyl)-D,L-homocysteine]", "values": [
      {"measurement": "antiviral activity: growth of SARS-CoV-2-GFP reporter virus", "setting": "SARS-CoV-2-GFP", "result": "have antiviral activity against SARS-CoV-2"},
      {"measurement": "released viral progeny in the supernatant by plaque assay", "setting": "[1]", "result": "dose-dependent suppression of the wt SARS-CoV-2"}
    ]},
    {"molecule": "Nc1ncnc2c1ncn2C[C@@H](O)[C@@H](O)C(=O)O", "note": "[DER, D-eritadenine]", "values": [
      {"measurement": "antiviral activity: growth of SARS-CoV-2-GFP reporter virus", "setting": "SARS-CoV-2-GFP", "result": "have antiviral activity against SARS-CoV-2"}
    ]},
    {"molecule": "Nc1nccc2c1ncn2[C@@H]1C=C(CO)[C@@H](O)[C@H]1O", "note": "[DZNep, 3-deazaneplanocin A]", "values": [
      {"measurement": "IL6 secretion/expression by ELISA", "setting": "IL6", "result": "significantly reduced IL6 expression in all tested conditions"},
      {"measurement": "abundance of innate immunity related factors (e.g. IL1RN, C3 and TNFAIP3/A20)", "setting": "NHBE cells", "result": "DZNep-dependent changes in abundance"},
      {"measurement": "factors counteracting fibrotic processes (e.g. ELAFIN, SLPI and ECM1)", "setting": "NHBE cells", "result": "up-regulation of factors counteracting fibrotic processes"},
      {"measurement": "factors of extrinsic coagulation cascade (e.g. F3 and TFPI2) and plasminogen activation system (e.g. PAI1, PLAT, PLAU)", "setting": "NHBE cells", "result": "reduction of factors of extrinsic coagulation cascade"},
      {"measurement": "pulmonary fibrosis biomarkers (e.g. COL4A1, MMP14 and SERPINE1)", "setting": "NHBE cells", "result": "reduction of pulmonary fibrosis biomarkers"},
      {"measurement": "expression of viral proteins (SARS-CoV-2) by mass spectrometry", "setting": "[2]", "result": "clear reduction"},
      {"measurement": "abundance changes of NP and spike (S), SARS-CoV-2", "setting": "[2]; A549-ACE2 (0.75 μM, 24 h) and NHBEs (1.5 μM, 36 h)", "result": "DZNep-dependent inhibition of SARS-CoV-2"},
      {"measurement": "virus nucleoprotein (NP) expression by western blot", "setting": "[3]", "result": "potent antiviral effect against SARS-CoV-2"},
      {"measurement": "antiviral effect against SARS-CoV, expression of viral protein N", "setting": "[4]", "result": "do not observe an antiviral effect"},
      {"measurement": "antiviral activity: growth of SARS-CoV-2-GFP reporter virus", "setting": "SARS-CoV-2-GFP", "result": "have antiviral activity against SARS-CoV-2; also recorded: particularly strong antiviral efficacy"},
      {"measurement": "role of STAT1 dependent interferon response in SARS-CoV-2 inhibition by the compound", "setting": "SARS-CoV-2-GFP; STAT1 KO vs NTC A549-ACE2 cells, 6 h pre-treatment with DZNep and/or interferon alpha", "result": "does not play a major role in SARS-CoV-2 inhibition in vitro"},
      {"measurement": "antiviral activity against SARS-CoV in an in vivo infection model", "setting": "SARS-CoV", "result": "did not show antiviral activity against SARS-CoV"},
      {"measurement": "IP-10 secretion by ELISA", "setting": "IP-10", "result": "IP-10 secretion was enhanced"},
      {"measurement": "inhibition of SARS-CoV-2 in primary human ex-vivo infection model", "setting": "[5]", "result": "potent inhibitor of SARS-CoV-2"},
      {"measurement": "released viral progeny in the supernatant by plaque assay", "setting": "[1]", "result": "dose-dependent suppression of the wt SARS-CoV-2"}
    ]},
    {"molecule": "CNc1ccc(/C=C/c2c(F)cccc2Cl)cc1", "note": "[FIDAS-5, (E)-4-(2-chloro-6-fluorostyryl)-N-methylaniline]", "values": [
      {"measurement": "antiviral activity of co-treatment with DZNep", "setting": "SARS-CoV-2-GFP", "result": "synergistic antiviral activity"},
      {"measurement": "antiviral activity: growth of SARS-CoV-2-GFP reporter virus", "setting": "SARS-CoV-2-GFP", "result": "have antiviral activity against SARS-CoV-2"},
      {"measurement": "released viral progeny in the supernatant by plaque assay", "setting": "[1]", "result": "dose-dependent suppression of the wt SARS-CoV-2"}
    ]},
    {"molecule": "CCN(CCO)CCCC(C)Nc1ccnc2cc(Cl)ccc12", "note": "(stereo not drawn) [Hydroxychloroquine]", "values": [
      {"measurement": "influence of DZNep co-treatment on the antiviral efficacy of the compound", "setting": "SARS-CoV-2-GFP", "result": "does not negatively influence the antiviral efficacy"}
    ]},
    {"molecule": "Cc1nc2ccc(-c3c(Nc4ccccn4)[nH]c4c(-c5ccccc5)c(-c5ccccc5)nn4c3=O)cc2s1", "note": "[MAT2A inhibitor 1]", "values": [
      {"measurement": "antiviral activity: growth of SARS-CoV-2-GFP reporter virus", "setting": "SARS-CoV-2-GFP", "result": "have antiviral activity against SARS-CoV-2"}
    ]},
    {"molecule": "CN(C)CCc1nnc2cc(-c3ccccc3)c3cc(Cl)ccc3n12", "note": "[PF-9366, 2-(7-Chloro-5-phenyl-[1,2,4]triazolo[4,3-a]quinolin-1-yl)-N,N-dimethylethan-1-amine]", "values": [
      {"measurement": "antiviral activity: growth of SARS-CoV-2-GFP reporter virus", "setting": "SARS-CoV-2-GFP", "result": "have antiviral activity against SARS-CoV-2"}
    ]},
    {"molecule": "CC(C)NC[C@@H](C(=O)N1CCN(c2ncnc3c2[C@H](C)C[C@H]3O)CC1)c1ccc(Cl)cc1", "note": "[ipatasertib]", "values": [
      {"measurement": "influence of DZNep co-treatment on the antiviral efficacy of the compound", "setting": "SARS-CoV-2-GFP", "result": "does not negatively influence the antiviral efficacy"}
    ]},
    {"molecule": "CNC(=O)[C@@H](NC(=O)[C@H](CC(C)C)[C@H](O)C(=O)NO)C(C)(C)C", "note": "[marimastat]", "values": [
      {"measurement": "influence of DZNep co-treatment on the antiviral efficacy of the compound", "setting": "SARS-CoV-2-GFP", "result": "does not negatively influence the antiviral efficacy"}
    ]},
    {"molecule": "IFN-α", "values": [
      {"measurement": "synergy of combination with DZNep (combination index, CI)", "setting": "SARS-CoV-2-GFP", "result": "strong synergism"}
    ]}
  ]
}
